Source: BindingDB's records for doi:10.1016/S0960-894X(01)80103-7 (1994)

Assay: In vitro thromboxane receptor antagonist activity was determined by inhibition of U-46619 induced aggregation of washed human platelets

| SMILES | IC50 [µM] |
| --- | --- |
| O=C(O)CC/C=C\CC[C@@H]1[C@@H](c2cccnc2)[S@@+]([O-])C[C@H]1OCc1ccc(-c2ccccc2)cc1 | 0.105 |
| O=C(O)CC/C=C\CC[C@@H]1[C@@H](c2cccnc2)[S@+]([O-])C[C@H]1OCc1ccc(-c2ccccc2)cc1 | 0.077 |
| O=C(O)CC/C=C\CC[C@H]1[C@@H](OCc2ccc(-c3ccccc3)cc2)CS(=O)(=O)[C@@H]1c1cccnc1 [(Z)-7-[(2S,3S,4R)-4-(Biphenyl-4-ylmethoxy)-1,1-dioxo-2-pyridin-3-yl-tetrahydro-1lambda*6*-thiophen-3-yl]-hept-4-enoic acid] | 0.024 |
| O=C(O)CC/C=C\CC[C@H]1[C@@H](OCc2ccc(-c3ccccc3)cc2)C[S+]([O-])[C@@H]1c1cccnc1 (stereo partly drawn) [(Z)-7-[(2S,3S,4R)-4-(Biphenyl-4-ylmethoxy)-1-oxo-2-pyridin-3-yl-tetrahydro-1lambda*4*-thiophen-3-yl]-hept-4-enoic acid] | 0.057 |
| O=C(O)CC/C=C\CC[C@H]1[C@@H](OCc2ccc(-c3ccccc3)cc2)CS[C@@H]1c1cccnc1 [(Z)-7-[(2S,3S,4R)-4-(Biphenyl-4-ylmethoxy)-2-pyridin-3-yl-tetrahydro-thiophen-3-yl]-hept-4-enoic acid] | 0.046 |
| O=C(O)CC/C=C\CC[C@@H]1[C@@H](c2cccnc2)S(=O)(=O)C[C@H]1OCc1ccc(-c2ccccc2)cc1 [(Z)-7-[(2S,3S,4S)-4-(Biphenyl-4-ylmethoxy)-1,1-dioxo-2-pyridin-3-yl-tetrahydro-1lambda*6*-thiophen-3-yl]-hept-4-enoic acid] | 0.018 |
| O=C(O)CCC/C=C\C[C@@H]1[C@@H](c2cccnc2)SC[C@H]1OCc1ccc(-c2ccccc2)cc1 [(Z)-7-[(2S,3S,4S)-4-(Biphenyl-4-ylmethoxy)-2-pyridin-3-yl-tetrahydro-thiophen-3-yl]-hept-5-enoic acid] | 0.228 |
| O=C(O)CC/C=C\CC[C@@H]1[C@@H](N2CCCCC2)[C@@H](O)C[C@@H]1OCc1ccc(-c2ccccc2)cc1 [GR 32191] | 0.012 |

Assay: as above
Remark: another data set of the same source

| SMILES | IC50 [µM] |
| --- | --- |
| O=C(O)CC/C=C\CC[C@@H]1[C@@H](c2cccnc2)SC[C@H]1OCc1ccc(-c2ccccc2)cc1 [(Z)-7-[(2S,3S,4S)-4-(Biphenyl-4-ylmethoxy)-2-pyridin-3-yl-tetrahydro-thiophen-3-yl]-hept-4-enoic acid] | 0.046 |

Assay: as above
Remark: another data set of the same source

| SMILES | IC50 [µM] |
| --- | --- |
| O=C(O)CC/C=C\CC[C@@H]1[C@@H](c2cccnc2)SC[C@H]1OCc1ccc(-c2ccccc2)cc1 [(Z)-7-[(2S,3S,4S)-4-(Biphenyl-4-ylmethoxy)-2-pyridin-3-yl-tetrahydro-thiophen-3-yl]-hept-4-enoic acid] | 0.022 |
